Data on 90 compounds can be found in a melting point compilation (Tetko et al.; mined from patent text by program, amines drawn as free bases though some values may be those of a salt).

Some results are limits rather than exact numbers.

In the case of `Cn1cc(-c2cc3cccnc3[nH]2)c2cc(C(=O)NC(CO)(CO)CO)ccc21`, the melting point (usually the temperature, or range, at which the solid turns liquid) lay within 205 to 206 °C.

`NC(=O)CNc1ncccc1[N+](=O)[O-]` came in with a melting point of 250 to 251 °C.

In turn, `CCOC(=S)C(CC(=O)c1ccc(Oc2ccccc2)cc1)C(=O)CC` (stereo not given) registered a melting point of 55 to 57 °C.

Compound `OCc1ccc2cc(Cl)ccc2c1` registered a melting point of 134 to 137 °C.

`Cc1cccc(-c2[nH]c(C(C)C)nc2-c2ccc(F)c(-c3ccc(S(C)(=O)=O)cn3)c2)n1` gave a melting point of 105 to 108 °C.

In the case of `OCc1cnc2cc(C(F)(F)F)ccc2c1O`, the melting point was 302 to 304 °C.

Compound `C1=C(CCc2ccco2)CCN(Cc2n[nH]c3c2CCc2ccccc2-3)C1` showed a melting point of 205 to 208 °C.

In the case of `CCCOc1ccccc1C1=NC(=O)C2=NC(C)=NC2=N1`, the melting point was 264 to 265 °C.

Take `CC(C)C1(C)CCNC1=O` (stereo not given): the melting point fell in the range of 88 to 90 °C.

As for `CCC(C)(C)c1ccc(OCCCC(=O)Nc2ccc(OC)c(NC(=O)CC(=O)C3(C)COC(C)(C)OC3)c2)c(C(C)(C)CC)c1`, the melting point fell in the range of 128 to 130 °C.

For `CCOP(=O)(Cc1ccc(Oc2sc(C(N)=O)c3c2-c2c(cnn2CC)CC3)cc1)OCC`, the melting point lay in the range of 152 to 153 °C.

Turning to `N#Cc1cnn(-c2ccc(OC(F)(F)F)cc2Cl)c1N`, the melting point came to 115 °C.

`CC(C)c1c(O)cc(/C=C/c2ccccc2)cc1O` returned a melting point of 140 to 142 °C.

Compound `COCCN1CCN(C(C)c2ccc(-c3ccc(F)cc3)cc2)CC1` (stereo not given) had a melting point of 61 to 62 °C.

In the case of `C[C@]1(COc2ccc(N3CCN(C(=O)c4ccc(OC(F)(F)F)cc4)CC3)cc2)Cn2cc([N+](=O)[O-])nc2O1`, the melting point was 202 to 203 °C.

`O=C1CCNCCNC(=O)CCNCCN1` displayed a melting point of 198 to 199 °C.

Compound `COc1cc(OC)nc(Sc2c([N+](=O)[O-])c(C)nn2C)n1` registered a melting point of 124 to 125 °C.

`C=CC(=O)Oc1ccc(N2C(=O)C(=C(C)C)/C(=C(/C)c3c(C)n(C)c4ccccc34)C2=O)cc1` gave a melting point of 172 to 174 °C.

On to `COc1ccccc1C=C1CS(=O)(=O)CC(=Cc2ccccc2OC)C1=O`, for which the melting point was in the range of 198 to 200 °C.

`Nc1c(-c2ccc(-c3ccccc3)cc2)nc2ccc(Cl)cc2c1C(=O)O` yielded a melting point of 244 to 245 °C.

`CCN(Cc1cc(-c2ncco2)ccc1-c1ccccc1S(=O)(=O)Nc1onc(C)c1C)CC(F)(F)F` returned a melting point of 55 to 65 °C.

The compound `Oc1ccc2c(-c3ccc(F)cc3F)noc2c1Cl` yielded a melting point of 186 to 190 °C.

The compound `N#CCc1cccc2c(-c3ccc(Cl)cc3)onc12` returned a melting point of 165 to 169 °C.

Turning to `CC(C)n1cc(-c2ccc3nnn(Cc4ccc5ncccc5c4)c3n2)cn1`, the melting point was 126 to 128 °C.

In the case of `CN(C)C(=O)n1oc(CCl)c(Cl)c1=O`, the melting point was 107 to 108 °C.

As to `Cc1cc(C2=Nn3cnnc3SC2c2ccc(F)cc2)nc2c1OCC(=O)N2` (stereo not given), the melting point lay in the range of 256 to 257 °C.

Compound `CC(C)Oc1cc(CCC(=O)O)n(Cc2ccc(C(F)(F)F)cc2Cl)n1` returned a melting point of 122 °C.

As for `FC(F)(F)c1ccc(C#Cc2ccc(C#Cc3cc4ccccc4s3)s2)cc1`, the melting point was in the range of 149 to 150 °C.

Regarding `CC(C)Oc1ccc2c(c1)Oc1ccccc1S2(=O)=O`, the melting point was in the range of 94 to 95 °C.

`CCOC(=O)c1c(Nc2ccccc2OC)n[nH]c1C` had a melting point of 162 to 172 °C.

Turning to `Cn1ccnc1Sc1ccc(F)cc1[N+](=O)[O-]`, the melting point was in the range of 123 to 126 °C.

Compound `COc1ccc(CNc2nnc(-n3ccc(=O)cc3)c3ccc(C#N)cc23)cc1Cl` had a melting point of 218 to 219 °C.

In the case of `N#Cc1cnn(-c2ccc(Cl)nn2)c1N`, the melting point is 250 to 252 °C.

`O=S(=O)(c1ccc2nccnc2c1)c1cccc2cnccc12`: the melting point is 187 to 189 °C.

`CCCc1ccc(NCc2ccc(N(C)C)cc2)cc1` returned a melting point of 74 to 76 °C.

`Cc1ccc(I)c(CO)c1` returned a melting point of 82 to 85 °C.

On to `COc1ccc2c(c1)C(=O)c1c-2nc2ccccc2c1Cl`, for which the melting point lay within 216 to 218 °C.

In turn, `CC(C)(C)OC(=O)CCNC1(c2ccccc2Cl)C(=O)Nc2ccc(Cl)cc21` (stereo not given) gave a melting point of 188 °C.

Compound `CCCCN(CCCCCCCCSc1nc(-c2ccccc2)c(-c2ccccc2)[nH]1)C(=O)Nc1ccc(F)cc1F` returned a melting point of 114 to 115 °C.

In turn, `OC1(C(Cl)Cl)O[C@H](COCc2ccccc2)[C@@H](OCc2ccccc2)[C@H](OCc2ccccc2)[C@H]1OCc1ccccc1` (stereo not given in full) displayed a melting point of 72 to 73 °C.

`COc1ccc(-c2cc(Cl)cc3c2N(C)C(CN)CO3)c(C)c1` (stereo not given) returned a melting point of 106 °C.

`Cc1cccc(N2CCN(c3nnc(Cl)c(C)c3C)CC2)c1C` yielded a melting point of 194 °C.

Take `OC(c1ccc(Cl)cc1)(c1ccc(Cl)cc1)c1nnc[nH]1`: the melting point lay within 233 to 234 °C.

Compound `c1ccc2nc(N3CCNCC3)cnc2c1` displayed a melting point of 74 to 76 °C.

Turning to `O=Nc1c(-c2ccccc2)nc2sccn12`, the melting point lay within 175 to 177 °C.

Regarding `CC1Oc2ccc(C(=O)CCC(=O)O)cc2NC1=O` (stereo not given), the melting point lay in the range of 198 to 200 °C.

As to `CC1(C)Oc2ccc(S(=O)(=O)C(F)(F)F)cc2[C@@H](n2ccccc2=O)[C@@H]1O` (relative stereo), the melting point fell in the range of 219 to 220 °C.

`N#Cc1ccc(N2CCC(F)(F)C2)c2ccsc12` showed a melting point of 169 to 170 °C.

In turn, `CS(=O)(=O)Nc1ccc(OC[C@@H]2CO2)cc1` displayed a melting point of 106 to 108 °C.

Compound `Cc1nc2cc(Sc3cccc4cnccc34)c([N+](=O)[O-])cc2c(=O)[nH]1` showed a melting point above 270 °C.

Turning to `COC(OC)c1cccc(-c2ccc(C(=O)O)cc2)c1`, the melting point was in the range of 130 to 131 °C.

`O=P(O)(O)CCCCCCCCCCCC(F)(F)C(F)(F)C(F)(F)C(F)(F)F`: the melting point is 93 to 96 °C.

In turn, `CN(C)c1ccc(C2CCCN2S(=O)(=O)c2ccc(Cl)cc2)cc1Cl` (racemic) showed a melting point of 103 °C.

The compound `CC(=NNC(N)=O)c1ccc(NS(C)(=O)=O)c(Oc2ccc(F)cc2F)c1` had a melting point of 187 to 189 °C.

The compound `COc1ccc(-c2nc(S(=O)(=O)c3ccccc3)[nH]c2-c2ccc(OC)cc2)cc1` returned a melting point of 106 °C.

The compound `c1ccc2[nH]c(CCC(CCCc3[nH]c4ccccc4c3CCN3CCCCC3)CCN3CCCCC3)cc2c1` (stereo not given) showed a melting point of 79 to 83 °C.

In turn, `CCc1nc2cc(Cl)c(S(N)(=O)=O)cc2[nH]1` came in with a melting point of 240 to 242 °C.

Consider `O=C(OCCO)c1nc(Cl)c(Cl)[nH]1`, for which the melting point was 170 °C.

`Cc1noc([C@@H](Cc2ccccc2)NC(=O)[C@@H](Cc2ccc3ccccc3c2)NC(=O)[C@@H]2CCCN(C(=O)OC(C)(C)C)C2)n1` gave a melting point of 198 to 200 °C.

In turn, `CC(NC(=O)C(O)c1cc(F)cc(F)c1)C(=O)NC1N=C(c2ccccc2)c2ccccc2N(C)C1=O` (stereo not given) yielded a melting point of 128 °C.

With `OC1CSC(Oc2ccc(-c3cccnc3)cc2F)C(O)C1O` (stereo not given), the melting point worked out at 207 °C.

`O=S(=O)(/C=C/c1ccsc1)CS(=O)(=O)/C=C/c1ccsc1`: the melting point is 150 to 152 °C.

For `CCCCCCCCCCCCCCC(=O)NCCCN(C)C`, the melting point lay within 46 to 48 °C.

`CCCCN(CCCC)CCCOc1ccc(S(=O)(=O)c2ccccc2C(C)C)cc1` came in with a melting point of 88 °C.

As for `Cc1cc(O)n2ncc([N+](=O)[O-])c2n1`, the melting point amounted to 290 °C.

As to `CCOC1CC2(C)C(CCC3C4CCC(=O)C4(C)CC(N)C32)CC1O` (stereo not given), the melting point lay in the range of 144 to 148 °C.

Compound `CCCN1C(=O)N2C[C@@H](Cc3ccccc3)N=C2c2[nH]c(CSCC)nc21` registered a melting point of 178 to 180 °C.

`Cc1c(C(=O)Nc2ccc(N3CCC(N(CCO)CCO)CC3)c(C#N)c2)cnn1-c1ccc(Cl)cc1` showed a melting point of 230 to 233 °C.

`COc1ccc(COc2c(OC)ccc3c2CC(C(=O)O)N(C(=O)C(c2ccccc2)c2ccccc2)C3)cc1C` (racemic) displayed a melting point of 140 to 142 °C.

Compound `COc1cc(Nc2c(C#N)cnc3cc(-c4coc(C=O)c4)c(OC)cc23)c(Cl)cc1Cl` yielded a melting point of 238 to 241 °C.

`COc1cc2ccccc2[nH]c1=O`: the melting point was in the range of 188 to 189 °C.

`CCS(=O)(=O)c1nsc(NC(=O)NC)c1C#N`: the melting point is 258 °C.

`CC(=NOCC(=O)O)c1ccc(Cl)cc1` came in with a melting point of 116 °C.

Compound `Cc1c(C)c2c(c(C)c1O)CCC(C)(CCOc1ccc(CC3SC(=O)NC3=O)cc1)O2` (stereo not given) yielded a melting point of 152 to 154 °C.

`CCCCc1nc2ccc(C)c(C(=O)O)c2n1Cc1ccc(-c2ccccc2-c2nnn[nH]2)cc1` came in with a melting point of 298 to 299 °C.

`CCC(C)C(C)C(=O)Nc1ccc2ncn3c(=O)c(C(=O)O)cnc3c2c1` (stereo not given) displayed a melting point of 286 to 288 °C.

Compound `O=C(OCCN1CCN(CCN2CCOCC2)CC1)c1ccc(O)cc1` displayed a melting point of 176 to 178 °C.

The compound `CC(=O)NCCC1CCc2c(F)cc3nn(C)cc3c21` (stereo not given) displayed a melting point of 116 to 119 °C.

`CCOC(=O)CCc1cc(O)nn1C(C)C` returned a melting point of 119 to 120 °C.

As for `CN1CCN(C2=Nc3ccc(F)cc3Nc3sc4cc(Br)ccc4c32)CC1`, the melting point was in the range of 219 to 221 °C.

`NNc1cc(-c2ccnc(Nc3cccc(Cl)c3)n2)ccn1` showed a melting point of 201 to 203 °C.

Consider `COc1cc(C(=O)CBr)ccc1OC(C)=O`, for which the melting point turned out to be 82 °C.

As for `COc1cc(S(=O)(=O)c2ccncc2)ccc1[N+](=O)[O-]`, the melting point lay within 123 to 124 °C.

As to `Cc1ccc(S(=O)(=O)NCC(CC(=O)Nc2ccccc2)c2ccc(Cl)cc2)cc1` (stereo not given), the melting point lay in the range of 200 to 202 °C.

For `CN1c2cscc2CNc2ccccc21`, the melting point lay in the range of 125 to 127 °C.

In turn, `CCOC(=O)c1cnc(N2CCSCC2)nc1Cl` returned a melting point of 81 to 83 °C.

`COc1cccc2c(Nc3ccccc3C)c(C(=O)C(C)C)cnc12` showed a melting point of 116 to 118 °C.

Regarding `CCC1(O)CCC2C3=C(CCC21C)c1ccc(OC)cc1CC3` (stereo not given), the melting point lay in the range of 105 to 120 °C.

On to `Cc1ccc(C(=O)N2CCOCC2)c(Nc2ccc3cn[nH]c3c2)n1`, for which the melting point was in the range of 103 to 104 °C.

In turn, `C=C(C)COc1ccc(C(=O)C=Cc2ccc(OC)cc2OC)c(O)c1` displayed a melting point of 106 to 107 °C.
